{"source": "patent US8546451B2", "about": "(priority 2005, dated 2013)", "assay": "Neuropharmacological and pulmonary safety pharmacology", "conditions": "in vivo", "data": [{"smiles": "O=C(c1ccc(O)c(F)c1)N(c1ccc(O)cc1)c1ccc(F)cc1", "note": "[Compound IV, 3-fluoro-N-(4-fluorophenyl)-4-hydroxy-N-(4-hydroxyphenyl)benzamide]", "values": [{"measurement": "neuropharmacological or pulmonary effects", "value": "No neuropharmacological or pulmonary effects were observed"}]}]}
